The structures appear in SMILES notation.

This data set in a line: gradient 5% acetonitrile 3 min, to 50% in 2 min, to 85% in 15 min, held 3 min, 100 µL/min. The conditions noted are these: column: Zorbax Extend-C18 2.1 x 50 mm; eluents: water / acetonitrile, 0.1% formic acid. The essentials: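 Each retention time is based on an adduct peak selected computationally and verified by manual inspection. Measurements used HPLC–quadrupole time-of-flight mass spectrometry in positive and negative ionization mode on mixtures of ~100 pure standards. Chromatography ran on a Zorbax Extend-C18 column (2.1 × 50 mm, 1.8 μm) at 100 μL/min with water and acetonitrile, each containing 0.1% formic acid, and dead and dwell volumes of 40 μL and 900 μL.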
Regarding `COC(=O)C1=CN(c2cc(F)ccc2C)c2cc(F)ccc2S1(=O)=O`, the RP-LC retention time was 842 s.
`CC(=O)Nc1ccc(S(=O)(=O)NCCc2csc(C)n2)cc1`: the RP-LC retention time was 600 s.
The figure for `Cn1c(C2CCN(C(=O)c3cccc(Cl)c3)C2)nc2cccnc21` (centres undefined) is 688 s; for `O=C(NCCO)C(=O)NCC1(c2ccccc2)CCCC1` it is 715 s; for `CCn1c(=O)c(N2CCC(NC(=O)NCCc3ccccc3)CC2)nc2ccccc21` it is 882 s.
`O=C(c1ccoc1)N1CCCCC1c1nncn1Cc1ccccc1` (centres undefined) yielded an RP-LC retention time of 689 s.
In turn, `COC(=O)c1cc(OCC(=O)Nc2ccc(F)cc2)c2cc(OC)c(OC)cc2n1` came in with an RP-LC retention time of 750 s.
`O=C(NCCc1cccnc1)c1cn(-c2cc(N3CCOCC3)ncn2)cn1` had an RP-LC retention time of 565 s.
For the compound `CN(C)S(=O)(=O)c1ccc(-c2nnc(C(=O)NC3CCCCC3)o2)cc1`, the RP-LC retention time was 886 s.
The figure for `CC(C)NC(=O)N1CCC2(CC1)C(=O)N(C)c1ccccc12` is 697 s; for `COc1cccc(Cn2nc3ccc(S(=O)(=O)N4CCCCCC4)cn3c2=O)c1` it is 946 s; for `COc1ccc(NC(=O)Cn2nc3cc(-c4ccccc4)nc(C)n3c2=O)cc1F` it is 914 s.
The figure for `COc1ccc(OC)c(N2C=C(C#N)S(=O)(=O)c3ccc(F)cc32)c1` is 921 s.
The compound `Cc1nnc2c(=O)n(CC(=O)NCc3cc(F)cc(F)c3)c3cccnc3n12` showed an RP-LC retention time of 686 s.
`Cc1nn2c(CNC(=O)c3cccc(C(F)(F)F)c3)c(C)nc2s1` had an RP-LC retention time of 688 s.
`Cc1noc([C@@H]2CC(F)(F)CN2C(=O)c2ccoc2)n1` displayed an RP-LC retention time of 703 s.
The figure for `Cc1ccc(-c2nc(C)cc(OCC(=O)Nc3c(C)cc(C)cc3C)n2)cc1` is 1130 s.
`COc1ccccc1NC(=O)C1C(=O)NC2(C)CC1c1ccccc1O2` (centres undefined): the RP-LC retention time was 905 s.
In turn, `COc1ccc(-n2cc(C(=O)OCc3cc(=O)n4ccccc4n3)c3ccccc3c2=O)cc1` gave an RP-LC retention time of 861 s.
As for `NC(=O)C1CCN(c2ncnc(N)c2[N+](=O)[O-])CC1`, the RP-LC retention time amounted to 512 s.
In turn, `CN(C)CCNC(=O)c1ccc(CS(=O)Cc2ccccc2Cl)o1` (centres undefined) returned an RP-LC retention time of 597 s.
With `Cc1ccc(-c2noc(-c3cccn(CC(=O)NC(C)C)c3=O)n2)cc1`, the RP-LC retention time was determined as 764 s.
For `COc1ccc(-c2[nH]ncc2CN2CCC3(CC2)CC(C)(O)CCO3)cc1` (centres undefined) the value was 588 s; for `CC1CCCC(C)N1CCCNC(=O)c1cc2sccc2n1Cc1ccc(Cl)cc1` (centres undefined), 783 s.
As for `COc1ccc(Br)c(C(=O)Nc2ccc3c(c2)C(=O)NCC3)c1`, the RP-LC retention time turned out to be 672 s.
For `COc1ccccc1-c1nc(Cn2nnc(-c3nc(-c4ccc(SC)cc4)no3)c2C)c(C)o1` the value was 1180 s.
`O=C(CSc1ncnc2c1[nH]c1ccc(F)cc12)N1CCc2ccccc2C1` returned an RP-LC retention time of 891 s.
For the compound `C=CCN1CCN(C(=O)c2cn(-c3ccc(-c4nc(C(C)(C)C)no4)cn3)cn2)CC1`, the RP-LC retention time was determined as 680 s.
`Cc1nsc2ncc(C(=O)N3CCOCC3)c(N3CCC(C(=O)Nc4ccccc4F)CC3)c12`: the RP-LC retention time was determined as 758 s.
On to `CCN1C(=O)C(C)(C(=O)Nc2cc(C)ccc2C)Oc2cccnc21` (centres undefined), for which the RP-LC retention time is 744 s.
For the compound `COC(=O)c1ccccc1NC(=O)N1CCc2nc[nH]c2C1`, the RP-LC retention time was 596 s.
The figure for `Cc1nc2cccnc2n1CC1CCCN(S(=O)(=O)Cc2ccccc2)C1` (centres undefined) is 654 s; for `O=C(NCC(=O)N1CCCc2ccccc21)c1ccc(Br)cc1` it is 892 s.
`CCOC(=O)c1noc2nc(C)nc(NCC3CCN(Cc4ccc(F)cc4)CC3)c12` gave an RP-LC retention time of 666 s.
Compound `CCN(CC)CCCn1c(C)cc2c(c1=O)C(c1ccc(Cl)cc1)C(C#N)=C(N)O2` (centres undefined) came in with an RP-LC retention time of 658 s.
Compound `Cn1c(=O)n(CC(=O)N2CCCCCC2)c(=O)c2cnc(-c3ccc(Cl)cc3)nc21` gave an RP-LC retention time of 1120 s.
Take `Cc1cc(C)cc(NC(=O)C2CCN(S(C)(=O)=O)c3cc(C)ccc3O2)c1` (centres undefined): the RP-LC retention time worked out at 900 s.
In turn, `CCOC(=O)c1c(S(=O)(=O)N2CCC(C(=O)Nc3cccnc3)CC2)c(C)n(C)c1C` yielded an RP-LC retention time of 623 s.
`CN(CCc1noc(COc2ccccc2F)n1)C(=O)c1cccs1`: the RP-LC retention time was 835 s.
Regarding `O=C(Nc1ccccc1)NC1CCN(C(=O)N2C[C@H]3C[C@H](C2)[C@H]2CCCC(=O)N2C3)CC1`, the RP-LC retention time came to 654 s.
`Oc1ccc(-c2csc(Nc3ccccn3)n2)cc1` came in with an RP-LC retention time of 646 s.
In the case of `COCCNC(=O)Cc1ccc(NC(=O)c2ccc(Br)o2)cc1`, the RP-LC retention time amounted to 637 s.
The figure for `O=C(CN1C(=O)CN(C(=O)NCc2ccccc2)c2ccccc21)NCCc1ccco1` is 803 s; for `CCc1nc2cc(N3CCC(C(=O)N(C)Cc4ccco4)CC3)cnc2nc1CC` it is 755 s.
On to `CCn1c(=O)c(C)nc2cc(-c3noc(-c4ccccc4C)n3)ccc21`, for which the RP-LC retention time came to 1190 s.
`CC(C(=O)NCCCN1CCCC1=O)C1CCN(C(=O)c2cc3cc(Cl)ccc3[nH]2)CC1` (centres undefined) came in with an RP-LC retention time of 698 s.
`CC(C)(C)c1csc(-c2csc(S(=O)(=O)NCCN3CCc4ccccc4C3)c2)n1` displayed an RP-LC retention time of 846 s.
`COc1cc([C@@H]2c3cc4c(cc3[C@H](O)[C@@H](CO)[C@@H]2C(=O)NCCC2=CCCCC2)OCO4)cc(OC)c1OC` came in with an RP-LC retention time of 781 s.
In turn, `CSc1cccc(NC(=O)c2cnc(-c3ccc(F)cc3)nc2-c2ccncc2)c1` showed an RP-LC retention time of 973 s.
The figure for `COCCn1c(SCc2nc(-c3ccc4c(c3)OCO4)no2)nc2cc3c(cc2c1=O)OCO3` is 1060 s; for `O=C(Nc1cnc(N2CCN(c3ccccc3Cl)CC2)c(C(=O)O)c1)c1cccs1` it is 910 s; for `O=C(NCc1ccc(C(F)(F)F)cc1)c1cn2c(n1)CCCC2` it is 646 s.
Turning to `Cc1cccc(C(=O)N2C[C@H](c3nc(-c4ccccc4)no3)[C@@H](C)C2)c1`, the RP-LC retention time worked out at 731 s.
The figure for `Cc1cccc(NS(=O)(=O)c2cc3n(c2)CCCN(C)C3=O)c1` is 695 s.
`Cc1oc2cc3oc(=O)c(CC(=O)N[C@@H](Cc4c[nH]c5ccccc45)C(=O)O)c(C)c3cc2c1C`: the RP-LC retention time is 863 s.
The figure for `O=S(=O)(Cc1ccccc1)N1CCC(OCCOCc2ccccc2)CC1` is 1040 s; for `COC(=O)c1cc(S(=O)(=O)N2CCCC2C(=O)NC2CCCCCC2)cn1C` (centres undefined) it is 881 s.
Compound `CCCC(=O)NC(C)c1nc(-c2ccccc2)no1` (centres undefined) had an RP-LC retention time of 782 s.
Consider `COc1ccc(OC)c(NC(=O)N2CCC3(CC2)N=C(c2ccc(C)c(C)c2)C(=O)N3)c1`, for which the RP-LC retention time was determined as 896 s.
In turn, `O=C(NC1(c2nc(-c3ccncc3)no2)CCCCC1)c1ccccn1` registered an RP-LC retention time of 885 s.
As for `Cc1ccc(-c2csc(Cc3nc(-c4ccc(F)cc4)no3)n2)c(C)c1`, the RP-LC retention time is 1070 s.
For `O=C(Cn1c(=O)n(-c2ccccc2)c2ncccc21)NC1CCN(Cc2ccccc2)CC1` the value was 630 s; for `Cc1cnn(CC(=O)N2CC(F)(F)C[C@H]2c2nc(C3CC3)no2)c1`, 703 s; for `CCc1ccc(CNC(=O)C2CCN(c3ncnc4c3oc3ccccc34)CC2)cc1`, 842 s.
`COc1cccc(-c2cn3ccn(-c4ccc5c(c4)CCC5)c(=O)c3n2)c1`: the RP-LC retention time was determined as 914 s.
In turn, `Cc1cc(N2CCOCC2)nc(Nc2ccc(NC(=O)C(C)Oc3ccccc3)cc2)n1` (centres undefined) gave an RP-LC retention time of 580 s.
For `O=C(NCC(O)c1ccc(C(F)(F)F)cc1)C(=O)Nc1ccc(F)cc1F` (centres undefined) the value was 880 s.
`COc1ccccc1NC(=O)C(=O)c1cn(CC(=O)N2CCCC2)c2ccccc12` came in with an RP-LC retention time of 1130 s.
Compound `CCCN(CC1CCOC1)C(=O)Nc1ccccc1` (centres undefined) registered an RP-LC retention time of 575 s.
Turning to `Cn1cc(-c2nc(C(=O)NCc3cc(F)cc(F)c3)cs2)c2cccnc21`, the RP-LC retention time stood at 944 s.
The compound `N#Cc1cccc(N2C=C(C(=O)N3CCCC3)S(=O)(=O)c3ccccc32)c1` showed an RP-LC retention time of 720 s.
For `Cc1sc(-c2nnc(C3CCC3)o2)cc1NC(=O)Cc1ccc(F)cc1` the value was 1020 s; for `Nc1cc(C2CCN(C(=O)c3ccccc3F)CC2)no1`, 648 s.
Take `O=C(CN1CCC(c2nc(-c3cccs3)no2)CC1)NCc1ccc(F)cc1`: the RP-LC retention time is 684 s.
In turn, `CCn1cc(-c2ccc(C)cc2)cc1C(=O)N1CCC2(CC1)OCCO2` returned an RP-LC retention time of 1000 s.
The compound `CCOc1cc(=O)n2c(c1C(=O)Nc1cccc(SC)c1)CCCC2` yielded an RP-LC retention time of 767 s.
Compound `CCCN1C(=O)C(NC(=O)c2ccccc2OC)(C(F)(F)F)C(C(=O)OC)=C1C` (centres undefined) returned an RP-LC retention time of 935 s.
Consider `Cc1nc2cc(-c3noc(-c4ccncc4)n3)ccc2n(C2CCCC2)c1=O`, for which the RP-LC retention time amounted to 1130 s.
`O=C(Nc1ccc(C(F)(F)F)cc1)C1CCCN(S(=O)(=O)c2c[nH]c(C(=O)N3CCCC3)c2)C1` (centres undefined): the RP-LC retention time was 908 s.

These data come from the METLIN SMRT retention time set (Domingo-Almenara et al. 2019).
